Data taken from patent US10669238B2, “Irreversible bruton's tyrosine kinase inhibitor” (HEFEI INSTITUTES OF PHYSICAL SCIENCE, CHINESE ACADEMY OF …, priority 2016, dated 2020).

Legend:
[1] = target: T1, BTK C481S (Homo sapiens, UniProt Q06187, C481S); assay: Btk cell-free kinase assay, BTK C481S mutant protein; assay type: biochemical; conditions: compound 30 mins at room temperature, then 100 μM ATP 20 min at 37° C.
T1 construct: made in house; host or cells: SF9 insect cells
Source text: The BTK wild-type plasmid and the BTK mutant plasmid (C481S) were respectively transfected into SF9 cells (purchased from invitrogen), and after three generations of virus amplification, the P3-generation virus was used to transfect SF9 cells which were collected after 72-hour culture to obtain protein BTK WT and protein BTK C481S, which were then purified.

[2] = target: BTK protein kinase (Homo sapiens, UniProt Q06187); assay: In vitro enzymatic activity against BTK (ADP-Glo); assay type: biochemical; conditions: for IC50: compound with BTK 4 hours at room temperature, ATP 10 μM, 37° C. 1 hour, values in nM
Sequence of BTK protein kinase (Q06187 whole entry): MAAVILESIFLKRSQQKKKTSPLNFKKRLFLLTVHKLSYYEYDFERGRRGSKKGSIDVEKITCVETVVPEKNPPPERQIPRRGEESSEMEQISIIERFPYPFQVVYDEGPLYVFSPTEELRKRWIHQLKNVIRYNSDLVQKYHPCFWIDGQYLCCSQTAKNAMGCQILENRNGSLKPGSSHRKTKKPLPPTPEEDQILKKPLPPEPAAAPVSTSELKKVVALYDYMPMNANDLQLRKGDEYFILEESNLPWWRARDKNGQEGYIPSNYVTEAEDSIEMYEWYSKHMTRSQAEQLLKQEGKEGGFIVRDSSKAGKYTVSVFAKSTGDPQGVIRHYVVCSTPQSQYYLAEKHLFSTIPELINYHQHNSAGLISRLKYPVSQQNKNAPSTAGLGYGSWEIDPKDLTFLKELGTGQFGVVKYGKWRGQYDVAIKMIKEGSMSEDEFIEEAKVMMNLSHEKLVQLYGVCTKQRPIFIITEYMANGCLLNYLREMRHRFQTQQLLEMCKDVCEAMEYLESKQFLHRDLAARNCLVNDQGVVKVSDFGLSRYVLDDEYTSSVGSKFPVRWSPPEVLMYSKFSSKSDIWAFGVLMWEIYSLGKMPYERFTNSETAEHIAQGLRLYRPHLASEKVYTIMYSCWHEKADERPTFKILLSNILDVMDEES
Method in brief: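 BTK (1.5 ng/μL enzyme solution) was preincubated with compound (final 10 μM to 0.003 μM) for 4 h at room temperature. Reaction ran 1 h at 37 °C with 10 μM ATP and 0.2 μg/μL poly(Glu,Tyr) 4:1 (final). ADP formed was measured by ADP-Glo luminescence, and IC50 was obtained by curve plotting.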

[3] = tested on: acute myelocytic leukemia cell strains HL-60; assay: Cell proliferation (Cell Titer-Glo), HL60; assay type: cell-based; conditions: Homo sapiens, HL60, 72 hours, read-out: Effects on cell proliferation (GI50)
Method: (§1) The selectivity of Compound 1 in inhibiting the proliferation of cancer cells was further evaluated by testing the effect of Btk inhibitors on the growth of cancer cells. […]
(§2) In this example different concentrations (0.000508 μM, 0.00152 μM, 0.00457 μM, 0.0137 μM, 0.0411 μM, 0.123 μM, 0.370 μM, 1.11 μM, 3.33 μM, 10 μM) of Compound 1 and Compound 6 were respectively added into the above cells which were then cultured for 72 hours. The number of viable cells was determined via quantitative determination of ATP in living cells by using Cell Titer-Glo® (Promega, the USA) Chemical Luminescent Cell Viability Assay kit.

[4] = tested on: acute myeloid leukemia cell lines U937; assay: Cell proliferation (Cell Titer-Glo), U937; assay type: cell-based; conditions: Homo sapiens, U-937; U937, 72 hours; read-out: Effects on cell proliferation (GI50)
Method: as §1, §2

[5] = tested on: acute promyelocytic leukemia cell line NB-4 (Lu+); assay: Cell proliferation (Cell Titer-Glo), NB4; assay type: cell-based; conditions: NB4, 72 hours; read-out: Effects on cell proliferation (GI50)
Method: as §1, §2

[6] = target: T2, TEL-BMX-BaF3 cells (stably expressing TEL-BMX activated kinase) (Homo sapiens, UniProt P51813); assay: Cell proliferation (Cell Titer-Glo), BaF3-tel-BMX; assay type: cell-based; conditions: BaF3-tel-BMX (mouse BaF3 cells), 72 hours; read-out: Effects on cell proliferation (GI50)
T2 construct: expressed in transfected cells; host or cells: mouse BaF3 cells, retroviral MSCV-Puro; the other entry of the earlier key: ETV6 (P41212, Transcription factor ETV6)
T2 sequence (P51813 417-675 limits assumed): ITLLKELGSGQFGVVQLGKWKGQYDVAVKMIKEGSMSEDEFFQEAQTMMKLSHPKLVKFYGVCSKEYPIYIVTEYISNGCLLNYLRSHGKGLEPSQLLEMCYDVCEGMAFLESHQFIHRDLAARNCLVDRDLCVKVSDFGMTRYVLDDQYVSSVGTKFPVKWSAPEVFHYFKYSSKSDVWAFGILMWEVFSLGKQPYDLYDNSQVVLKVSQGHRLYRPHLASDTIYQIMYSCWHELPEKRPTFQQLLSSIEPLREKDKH
Method: as §1, §2

[7] = target: T3, TEL-JAK3-BaF3 cells (stably expressing TEL-JAK3 activated kinase) (Homo sapiens, UniProt P52333); assay: Cell proliferation (Cell Titer-Glo), BaF3-tel-JAK3; assay type: cell-based; conditions: BaF3-tel-JAK3 (mouse BaF3 cells), 72 hours; read-out: Effects on cell proliferation (GI50)
T3 construct: expressed in transfected cells; host or cells: mouse BaF3 cells, retroviral MSCV-Puro; the other entry of the earlier key: ETV6 (P41212, Transcription factor ETV6)
T3 sequence (P52333 822-1111 limits assumed): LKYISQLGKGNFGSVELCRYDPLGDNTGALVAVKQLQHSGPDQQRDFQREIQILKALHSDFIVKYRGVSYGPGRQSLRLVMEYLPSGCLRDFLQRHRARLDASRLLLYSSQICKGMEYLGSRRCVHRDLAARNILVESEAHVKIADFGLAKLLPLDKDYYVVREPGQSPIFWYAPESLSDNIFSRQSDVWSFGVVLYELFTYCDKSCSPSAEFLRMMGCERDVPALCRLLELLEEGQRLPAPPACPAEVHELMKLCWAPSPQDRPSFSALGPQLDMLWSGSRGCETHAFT
Method: as §1, §2

[8] = target: T4, TEL-EGFR-BaF3 (stably expressing TEL-EGFR activated kinase) (Homo sapiens, UniProt P00533); assay: Cell proliferation (Cell Titer-Glo), BaF3-tel-EGFR; assay type: cell-based; conditions: BaF3-tel-EGFR (mouse BaF3 cells), 72 hours; read-out: Effects on cell proliferation (GI50)
T4 construct: expressed in transfected cells; host or cells: mouse BaF3 cells, retroviral MSCV-Puro; the other entry of the earlier key: ETV6 (P41212, Transcription factor ETV6)
T4 sequence (P00533 712-979 limits assumed): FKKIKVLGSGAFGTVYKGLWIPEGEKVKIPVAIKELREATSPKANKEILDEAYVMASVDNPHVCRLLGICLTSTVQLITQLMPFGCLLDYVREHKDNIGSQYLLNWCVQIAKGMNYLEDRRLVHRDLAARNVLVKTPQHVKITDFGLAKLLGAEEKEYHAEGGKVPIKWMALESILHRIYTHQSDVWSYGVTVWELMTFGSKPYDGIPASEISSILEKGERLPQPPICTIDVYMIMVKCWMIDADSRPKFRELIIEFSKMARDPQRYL
Method: as §1, §2

[9] = target: T5, TEL-EGFR/T790-BaF3 cells (stably expressing TEL-EGFR-C797S point mutation kinase) (Homo sapiens, UniProt P00533, C797S); assay: Cell proliferation (Cell Titer-Glo), BaF3-tel-EGFR-C797S; assay type: cell-based; conditions: BaF3-tel-EGFR-C797S (mouse BaF3 cells), 72 hours; read-out: Effects on cell proliferation (GI50)
T5 construct: expressed in transfected cells; host or cells: mouse BaF3 cells, retroviral MSCV-Puro
T5 sequence (P00533 712-979 C797S limits assumed): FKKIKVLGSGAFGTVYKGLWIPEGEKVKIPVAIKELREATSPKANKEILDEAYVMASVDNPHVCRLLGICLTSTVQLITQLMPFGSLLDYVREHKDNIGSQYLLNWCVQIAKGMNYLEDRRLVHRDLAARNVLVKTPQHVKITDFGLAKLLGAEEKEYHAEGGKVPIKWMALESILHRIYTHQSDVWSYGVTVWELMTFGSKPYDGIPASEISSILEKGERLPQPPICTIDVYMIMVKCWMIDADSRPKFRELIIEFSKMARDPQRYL
Method: as §1, §2

T1 sequence (Q06187 whole entry C481S): as the sequence (Q06187 whole entry) above, with C481S counted along it

| EC50 ([1]; read-out: EC50 against BTK C481S) [µM] | IC50 [2] [nM] | GI50 [3] [µM] | GI50 [4] [µM] | GI50 [5] [µM] | GI50 [6] [µM] | GI50 [7] [µM] | GI50 [8] [µM] | GI50 [9] [µM] | inhibitory effects against BTK C481S [1] | inhibitory effects on BTK protein ([2]; ADP-Glo assay, in words) | Compound |
| --- | --- | --- | --- | --- | --- | --- | --- | --- | --- | --- | --- |
| 0.185 | 7.09 | 5.5 | 4.8 | 6.6 | 0.38 | 3.2 | 5.3 | 2.5 |  |  | C=CC(=O)Nc1cc(Nc2cc(-c3cccc(NC(=O)c4ccc(C(C)(C)C)cc4)c3C)cn(C)c2=O)ccc1C(=O)N1CCOCC1 [Compound 1, N-(3-(5-((3-acrylamide-4-(morpholin-4-carbonyl)phenyl)amino)-1-methyl-6-oxo-1,6-dihydropyridin-3-yl)-2-methylphenyl)-4-(tert-butyl)benzamide] |
|  | 207 | > 10 | > 10 | > 10 | 4.1 | 4.6 | 7.6 | 1.8 | no inhibitory effects | relatively strong inhibitory effects | CCC(=O)Nc1cc(Nc2cc(-c3cccc(NC(=O)c4ccc(C(C)(C)C)cc4)c3C)cn(C)c2=O)ccc1C(=O)N1CCOCC1 [Compound 6, N-(3-(5-((3-propanamide-4-(morpholin-4-carbonyl)phenyl)amino)-1-methyl-6-oxo-1,6-dihydropyridin-3-yl)-2-methylphenyl)-4-(tert-butyl)benzamide] |
